Laboratory results: patent publication US20040157744A1, “Substituted fluoroalkoxyphenylsulfonyl-amino(thio)carbonyltriazolino(thi)ones” (priority 2001, published 2004)

Assays:
Amaranthus [1] = test: Post-emergence test, Amaranthus; format: in vivo; details: 15 g ai/ha, after three weeks
Experimental: (§1) Solvent: 5 parts by weight of acetone
(§2) Emulsifier: 1 part by weight of alkylaryl polyglycol ether
(§3) To produce a suitable preparation of active compound, 1 part by weight of active compound is mixed with the stated amount of solvent, the stated amount of emulsifier is added and the concentrate is diluted with water to the desired concentration.
(§4) Test plants of a height of 5-15 cm are sprayed with the preparation of active compound such that the particular amounts of active compound desired are applied per unit area. The concentration of the spray liquor is chosen such that the particular amounts of active compound desired are applied in 10001 of water/ha.
(§5) After three weeks, the degree of damage to the plants is rated in % damage in comparison to the development of the untreated control.
(§6) 0%=no effect (like untreated control)

Stellaria [2] = test: Post-emergence test, Stellaria; format: in vivo; details: 15 g ai/ha, after three weeks
Experimental: as §1, §2, §3, §4, §5, §6

Alopecurus [3] = test: Pre-emergence test, Alopecurus; format: in vivo; details: after three weeks
Experimental: as §1, §2, §3
(§7) Seeds of the test plants are sown in normal soil. After 24 hours, the soil is sprayed with the preparation of active compounds such that the particular amount of active compound desired is applied per unit area. The concentration of active compound in the spray liquor is chosen such that the particular amount of active compound desired is applied in 1000 litres of water per hectare.
(§8) After three weeks, the degree of damage to the plants is rated in % damaged in comparison to the development of the untreated control. The figures denote:
as §6

Matricaria [4] = test: Post-emergence test, Matricaria; format: in vivo; details: 15 g ai/ha, after three weeks
Experimental: as §1, §2, §3, §4, §5, §6

Xanthium = test: Post-emergence test, Xanthium; format: in vivo; details: 15 g ai/ha, after three weeks, vs untreated control (Table B-1)
Experimental: as §1, §2, §3, §4, §5, §6

weeds [5] = test: Pre-emergence test, action against weeds; format: in vivo
Experimental: as §1, §2, §3, §7, §8, §6

Abutilon = test: Post-emergence test, Abutilon; format: in vivo; details: 15 g ai/ha, after three weeks
Experimental: as §1, §2, §3, §4, §5, §6

Setaria = test: Post-emergence test, Setaria; format: in vivo; details: 15 g ai/ha, after three weeks, vs untreated control (Table B-1)
Experimental: as §1, §2, §3, §4, §5, §6

Matricaria [6] = test: Pre-emergence test, Matricaria; format: in vivo; details: after three weeks
Experimental: as §1, §2, §3, §7, §8, §6

Solanum = test: Pre-emergence test, Solanum; format: in vivo; details: after three weeks
Experimental: as §1, §2, §3, §7, §8, §6

Amaranthus [7] = test: Pre-emergence test, Amaranthus; format: in vivo; details: after three weeks
Experimental: as §1, §2, §3, §7, §8, §6

Viola = test: Pre-emergence test, Viola; format: in vivo; details: after three weeks
Experimental: as §1, §2, §3, §7, §8, §6

weeds [8] = test: Post-emergence test, action against weeds; format: in vivo
Experimental: as §1, §2, §3, §4, §5, §6

Lolium [9] = test: Post-emergence test, Lolium; format: in vivo; details: 15 g ai/ha, after three weeks, vs untreated control (Table B-2)
Experimental: as §1, §2, §3, §4, §5, §6

Echinochloa [10] = test: Post-emergence test, Echinochloa; format: in vivo; details: 15 g ai/ha, after three weeks, vs untreated control (Table B-2)
Experimental: as §1, §2, §3, §4, §5, §6

Alopecurus [11] = test: Post-emergence test, Alopecurus; format: in vivo; details: 15 g ai/ha, after three weeks, vs untreated control (Table B-2)
Experimental: as §1, §2, §3, §4, §5, §6

Barley = test: Pre-emergence test, Barley; format: in vivo; details: 4 g ai/ha, after three weeks, vs untreated control (Table A-2)
Experimental: as §1, §2, §3, §7, §8, §6

Wheat = test: Pre-emergence test, Wheat; format: in vivo; details: after three weeks
Experimental: as §1, §2, §3, §7, §8, §6

Stellaria [12] = test: Pre-emergence test, Stellaria; format: in vivo; details: 30 g ai/ha, after three weeks
Experimental: as §1, §2, §3, §7, §8, §6

Echinochloa [13] = test: Pre-emergence test, Echinochloa; format: in vivo; details: 30 g ai/ha, after three weeks
Experimental: as §1, §2, §3, §7, §8, §6

Galium = test: Pre-emergence test, Galium; format: in vivo; details: 30 g ai/ha, after three weeks
Experimental: as §1, §2, §3, §7, §8, §6

Lolium [14] = test: Pre-emergence test, Lolium; format: in vivo; details: 30 g ai/ha, after three weeks
Experimental: as §1, §2, §3, §7, §8, §6

Sugar beet = test: Pre-emergence test, Sugar beet; format: in vivo; details: 30 g ai/ha, after three weeks, vs untreated control (Table A-5)
Experimental: as §1, §2, §3, §7, §8, §6

[15] = vs untreated control (Table B-1)
[16] = 8 g ai/ha, vs untreated control (Table A-1)
[17] = vs untreated control (Table B-2)
[18] = 4 g ai/ha, vs untreated control (Table A-2)
[19] = vs untreated control (Table A-3)
[20] = 30 g ai/ha, vs untreated control (Table A-3)
[21] = vs untreated control (Table A-4)
[22] = 30 g ai/ha, vs untreated control (Table A-4)
[23] = vs untreated control (Table A-5)
[24] = 30 g ai/ha, vs untreated control (Table A-5)

`CCc1ccccc1S(=O)(=O)N(OCCF)C(=O)n1nc(C)n(C2CC2)c1=O` [Ex. 1, 4-cyclopropyl-5-methyl-2-[(2-fluoro-ethoxy)-6-ethyl-phenylsulphonylaminocarbonyl]-2,4-dihydro-3H-1,2,4-triazol-3-one] showed a melting point of 147 °C.
For `CCCOc1cccc(OCCF)c1S(=O)(=O)NC(=O)n1nc(OCC)n(C)c1=O` [Ex. 32], the “degree of damage, Amaranthus” value (Amaranthus [1]; [15]) was 100%, the “degree of damage, Stellaria” value (Stellaria [2]; [15]) was 100% and the “degree of damage, Alopecurus” value (Alopecurus [3]; [16]) was 100%. The “degree of damage, Matricaria” value (Matricaria [4]; [15]) was 100%, the “degree of damage, Xanthium” value (Xanthium) was 100% and the action against weeds (weeds [5]) was “very strong action”. The “degree of damage, Abutilon” value (Abutilon; [15]) was 100%, the “degree of damage, Setaria” value (Setaria) was 95% and the “degree of damage, Matricaria” value (Matricaria [6]; [16]) was 100%. For the same compound, the “degree of damage, Solanum” value (Solanum; [16]) was 100%, the “degree of damage, Amaranthus” value (Amaranthus [7]; [16]) was 100% and the “degree of damage, Viola” value (Viola; [16]) was 100%. The melting point was 132 °C and the action against weeds (weeds [8]) was “very strong action”.
In the case of `CCOc1cccc(OCCF)c1S(=O)(=O)NC(=O)n1nc(OCC)n(C)c1=O` [Ex. 33], the “degree of damage, Amaranthus” value (Amaranthus [1]; [17]) is reported as 100%, the “degree of damage, Stellaria” value (Stellaria [2]; [17]) is reported as 100% and the “degree of damage, Matricaria” value (Matricaria [4]; [17]) is reported as 100%. The “degree of damage, Lolium” value (Lolium [9]) was 95%, the “degree of damage, Echinochloa” value (Echinochloa [10]) was 100% and the “degree of damage, Alopecurus” value (Alopecurus [11]) was 95%. For the same compound, the “degree of damage, Abutilon” value (Abutilon; [17]) was 100%, the melting point was 157 °C and the action against weeds (weeds [8]) was “very strong action”.
For `CCCOc1nn(C(=O)NS(=O)(=O)c2c(OCC)cccc2OCCF)c(=O)n1C` [Ex. 34], the “degree of damage, Barley” value (Barley) was 10%, the “degree of damage, Alopecurus” value (Alopecurus [3]; [18]) was 100% and the action against weeds (weeds [5]) was “very strong action”. The “degree of damage, Matricaria” value (Matricaria [6]; [18]) was 100%, the “degree of damage, Solanum” value (Solanum; [18]) was 95% and the “degree of damage, Amaranthus” value (Amaranthus [7]; [18]) was 95%. For the same compound, the “degree of damage, Wheat” value (Wheat; [18]) was 0%, the “degree of damage, Viola” value (Viola; [18]) was 95% and the melting point was 123 °C.
In the case of `COc1nn(C(=O)NS(=O)(=O)c2c(C)cccc2OCCCF)c(=O)n1C` [Ex. 41], the “degree of damage, Stellaria” value (Stellaria [12]; [19]) is reported as 100%, the “degree of damage, Echinochloa” value (Echinochloa [13]; [19]) is reported as 95% and the “degree of damage, Galium” value (Galium; [19]) is reported as 100%. For the same compound, the action against weeds (weeds [5]) was “very strong action”, the “degree of damage, Matricaria” value (Matricaria [6]; [20]) was 100% and the “degree of damage, Amaranthus” value (Amaranthus [7]; [20]) was 95%. The “degree of damage, Wheat” value (Wheat; [20]) was 0%, the melting point was 120 °C and the “degree of damage, Lolium” value (Lolium [14]; [19]) was 90%.
With `CCc1cccc(OCCCF)c1S(=O)(=O)NC(=O)n1nc(CC)n(C2CC2)c1=O` [Ex. 93] the “degree of damage, Stellaria” value (Stellaria [12]; [21]) was 100%, the “degree of damage, Alopecurus” value (Alopecurus [3]; [22]) was 95% and the “degree of damage, Echinochloa” value (Echinochloa [13]; [21]) was 100%. The “degree of damage, Galium” value (Galium; [21]) was 95%, the action against weeds (weeds [5]) was “very strong action” and the “degree of damage, Amaranthus” value (Amaranthus [7]; [22]) was 100%. For the same compound, the “degree of damage, Viola” value (Viola; [22]) was 100%, the melting point was 140 °C and the “degree of damage, Lolium” value (Lolium [14]; [21]) was 95%.
With `CCCc1cccc(OCCCF)c1S(=O)(=O)NC(=O)n1nc(N(C)C)n(C2CC2)c1=O` [Ex. 114] the “degree of damage, Stellaria” value (Stellaria [12]; [23]) was 95%, the “degree of damage, Sugar beet” value (Sugar beet) was 0% and the “degree of damage, Alopecurus” value (Alopecurus [3]; [24]) was 95%. For the same compound, the “degree of damage, Galium” value (Galium; [23]) was 80%, the action against weeds (weeds [5]) was “very strong action” and the “degree of damage, Amaranthus” value (Amaranthus [7]; [24]) was 95%. For the same compound, the melting point was 130 °C and the “degree of damage, Lolium” value (Lolium [14]; [23]) was 95%.
